Reference: ChEMBL document CHEMBL1221203, “Modern synthetic efforts toward biologically active terpenes” (Nat Chem Biol, 2007)

Test system: Human immunodeficiency virus
Assay: Antiviral activity against HIV replication in human H9 cells
Assay type: functional, organism-based
Conditions: Human immunodeficiency virus 1, H9

C[C@]12CCC[C@]3(C(=O)OC1)[C@@H]2CC[C@@]12C[C@@H](CC[C@H]13)[C@](C)(O)C2 [NEOTRIPTERIFORDIN]
EC50: 25 nM
